Measurements from ChEMBL document CHEMBL5604061, “ASAP - WNV NS2B-NS3 protease fluorescence dose response” (2024).
Values joined by “and” are separate entries in the source; they are usually repeats but may differ in a detail not shown here. Equal values may be shown once.

Molecular target: T1, NS3 (West Nile virus, UniProt K4FQI5)
T1 sequence (K4FQI5 whole entry): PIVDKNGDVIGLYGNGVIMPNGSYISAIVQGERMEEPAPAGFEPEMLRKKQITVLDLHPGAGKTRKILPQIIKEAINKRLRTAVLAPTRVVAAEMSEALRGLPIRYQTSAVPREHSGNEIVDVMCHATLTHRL
Assay: Functional biochemical assay to identify treatments for viral infectious disease that targets West Nile NS2B-NS3 protease. Utilizing a direct enzyme activity measurement method, reading the fluorescence intensity is used to characterize the relative potency of inhibitors as IC50.
Parameters: species or system NY-99

`CCOCCNC(=O)[C@H](Nc1ccc2c(c1)CNC2)c1cc(Cl)cc2[nH]ncc12` and `CC(C)CNC(=O)[C@H](Nc1ccc2c(c1)CNC2)c1cc(Cl)cc2[nH]ncc12` are within 1.5-fold of each other in IC50: 0.465 µM for the first, 0.643 µM for the second.

First: Nc1cc(Cl)cc(C(=O)Nc2ccc3c(c2)CNC3)c1N
Second: Cn1cc2c(C(=O)Nc3ccc4c(c3)CNC4)cc(Cl)cc2n1
The IC50 of the first is 2.2-fold higher: 33.3 µM for the first, 15.1 µM for the second. The second is the more potent here.

`c1ccc2c(CN3CCC(c4c[nH]c5cccnc45)CC3)c[nH]c2c1` and `c1cc(C2CCN(Cc3c[nH]c4ccccc34)CC2)c2ccncc2c1` cannot be ordered by IC50: greater than 99.5 µM for the first, greater than 99.5 µM for the second.

First: COc1cc(Cc2c(-c3ccc(F)cc3)noc2C)nc(N2CCNCC2)n1
Second: NCc1ccc(-c2ncc(OCC3CCNCC3)nc2-c2ccc(C3CCOCC3)cc2)cc1
The IC50 of the first is lower: 67.3 µM for the first, greater than 99.5 µM for the second. The first is the more potent here.

Going from `O=C(Nc1ccc2c(c1)CNC2)c1cc(F)cc2c1CCC2` to `O=C(Nc1ccc2c(c1)CNC2)c1cc(Cl)cc2c1NCCC2`, the IC50 rises from 4.41 µM to greater than 99.5 µM.

Compared with `O=C(Nc1ccc2c(c1)CNC2)c1cccc2[nH]c(C(F)(F)F)cc12`, `O=C(Nc1ccc2c(c1)CNC2)c1cccc2sccc12` is 5.5-fold higher in IC50: 2.51 µM for the first, 13.8 µM for the second.

Compared with `O=C(Nc1ccc2c(c1)CNC2)c1cc(Cl)cc(-n2cccc2)c1`, `N#Cc1cc(Cl)cc(C(=O)Nc2ccc3c(c2)CNC3)c1` is 4.3-fold higher in IC50: 12.9 µM for the first, 54.9 µM for the second. The first is the more potent here.

Compared with `NCc1cccc(NC(=O)c2cc(Cl)cc(-n3cccc3)c2)c1`, `NCc1cccc(NC(=O)c2cc(Cl)cc(NC(=O)OCc3ccccc3)c2)c1` is lower in IC50: greater than 99.5 µM for the first, 22.9 µM for the second.

`O=C(Nc1cc(Cl)cc(C(=O)Nc2cccc(-n3nn[nH]c3=O)c2)c1)OCc1ccccc1` and `N[C@H]1CCc2cc(NC(=O)c3cc(Cl)cc(NC(=O)OCc4ccccc4)c3)ccc21` are within 1.5-fold of each other in IC50: 32.9 µM for the first, 45.1 µM for the second.

First: O=C1Cc2c(cc(Br)cc2C(=O)Nc2ccc3c(c2)CNC3)N1
Second: O=C(Nc1ccc2c(c1)CNC2)c1cc(Br)cc2ccccc12
The IC50 of the first is 18-fold lower: 3.18 µM for the first, 57.6 µM for the second.

Going from `NCCc1ccc([C@H]2C[C@@H]2c2cc(Cl)cc(NC(=O)OCc3ccccc3)c2)cc1` to `NCc1cccc([C@H]2C[C@@H]2c2cc(Cl)cc(NC(=O)OCc3ccccc3)c2)c1`, the IC50 rises from 7.12 µM to 18.8 µM (2.6-fold).

First: O=C(Nc1ccc2c(c1)CN[C@H]2[C@H](O)CO)c1cc(F)cc2[nH]ncc12
Second: C=CC[C@H]1NCc2cc(NC(=O)c3cc(Cl)cc4[nH]ncc34)ccc21
The IC50 of the first is 2.1-fold lower: 6.73 µM for the first, 14.1 µM for the second. The first is the more potent here.

First: C[C@]1(O)C(=O)Nc2cc(F)cc(C(=O)Nc3ccc4c(c3)CNC4)c21
Second: O=C(Nc1ccc2c(c1)CNC2)c1cc(F)cc2[nH]c(-c3ccccc3)nc12
The IC50 of the first is 2.9-fold lower: 5.58 µM for the first, 16 µM for the second. The first is the more potent here.

Going from `CN(C)C(=O)CCCc1nc2c(C(=O)Nc3ccc4c(c3)CNC4)cc(Cl)cc2[nH]1` to `Cn1cc(CCc2nc3c(C(=O)Nc4ccc5c(c4)CNC5)cc(Cl)cc3[nH]2)cn1`, the IC50 falls from greater than 99.5 µM to 44.5 µM. The second is the more potent here.

`c1ccc2c(CN3CCC(c4cscn4)CC3)c[nH]c2c1` and `NS(=O)(=O)c1ccc(C2CCN(Cc3c[nH]c4ccccc34)CC2)cc1` cannot be ordered by IC50: greater than 99.5 µM for the first, greater than 99.5 µM for the second.

Compared with `CC1=C(c2cc(NC(=O)c3cc(Cl)cc4[nH]ncc34)cc3c2CNC3)CCC1=O`, `O=C(Nc1ccc2c(c1)CCNCC2)c1cc(Cl)cc2[nH]ncc12` is 3.8-fold higher in IC50: 12.9 µM for the first, 48.5 µM for the second.

`O=C(Nc1ccc2c(c1)CNC2)c1cc(F)cc(-c2ccncc2)c1` and `O=C(Nc1ccc2c(c1)CNC2)c1cc(F)cc(-c2ccc3c(=O)[nH]ncc3c2)c1` are within 1.5-fold of each other in IC50: 3.65 µM for the first, 5.15 µM for the second.

Going from `O=C(NCC(F)F)[C@H](Nc1ccc2c(c1)CNC2)c1cccc(Cl)c1` to `O=C(NCC(F)F)[C@H](Nc1ccc2c(c1)CNC2)c1cc(Cl)ccc1Cl`, the IC50 rises from 0.477 µM to 3.01 µM (6.3-fold).

Going from `CNC(=O)[C@H](Nc1ccc2c(c1)CNC2)c1cc(Cl)cc2[nH]c(-c3ccccc3)nc12` to `CNC(=O)[C@H](Nc1ccc2c(c1)CNC2)c1cc(Cl)cc2[nH]ncc12`, the IC50 rises from 0.281 µM to 0.677 µM (2.4-fold). The first is the more potent here.

Going from `O=C(NCCOCC1CC1)[C@H](Nc1ccc2c(c1)CNC2)c1cc(Cl)cc(C2CC2)c1` to `COC(=O)CNC(=O)[C@H](Nc1ccc2c(c1)CNC2)c1cc(Cl)cc(C2CC2)c1`, the IC50 rises from 0.366 µM to 0.897 µM (2.5-fold).

Compared with `O=C(Nc1ccc2c(c1)CNC2)c1cc(F)cc2[nH]c(CC[C@H]3CCCOC3)nc12`, `O=C(Nc1ccc2c(c1)CNC2)c1cc(Br)cc2[nH]c([C@H]3CCCO3)nc12` is higher in IC50: 3.78 µM for the first, greater than 99.5 µM for the second.

`O=C(Nc1ccc2c(c1)CNC2)c1cc(Cl)cc2ccccc12` and `CCCn1ncc2c(C(=O)Nc3ccc4c(c3)CNC4)cc(Cl)cc21` are within 1.5-fold of each other in IC50: 14.7 µM for the first, 12.5 µM for the second.

`CCOCC1(c2nc3c(C(=O)Nc4ccc5c(c4)CNC5)cc(Cl)cc3[nH]2)CC1` and `O=C(Nc1ccc2c(c1)CNC2)c1cc(Cl)cc2[nH]c(C3(n4ccnn4)CC3)nc12` cannot be ordered by IC50: greater than 99.5 µM for the first, greater than 99.5 µM for the second.

Compared with `CNC(=O)[C@H](Nc1cccc(CN)c1)c1cc(Cl)cc(NC(=O)OCc2ccccc2)c1`, `NCc1cccc(NC(=O)[C@H](NC(=O)OCc2ccccc2)C2CCC(c3ccccc3)CC2)c1` (some centres not stated) is 4.4-fold higher in IC50: 1.88 µM for the first, 8.31 µM for the second. The first is the more potent here.

Going from `CNC(=O)c1cc(Cl)c(F)cc1NS(=O)(=O)c1ccc(Oc2ccccc2Cl)cc1` to `CC(C)CNC(=O)c1cc(Cl)ccc1NS(=O)(=O)c1ccc(Oc2ccccc2Cl)cc1`, the IC50 rises from 30.6 µM to greater than 99.5 µM.

Going from `N#Cc1csc2cc(C(=O)Nc3ccc4c(c3)CNC4)ccc12` to `N#Cc1c[nH]c2ccc(C(=O)Nc3ccc4c(c3)CNC4)cc12`, the IC50 falls from 25.2 µM to 9.06 µM (2.8-fold). The second is the more potent here.

Going from `CCCCCC(=O)N[C@H](C(=O)NCc1cccc(CN)c1)c1ccc(OCc2ccccc2)cc1` to `O=C(Nc1ccccc1)OCc1ccccc1` [BENZYL PHENYLCARBAMATE], the IC50 rises from 72.3 µM to greater than 100 µM.

First: O=C(Nc1ccc2c(c1)CNC2)c1cc(Cl)cc2c1cnn2C1CCOCC1
Second: CO[C@H]1C[C@H](n2ncc3c(C(=O)Nc4ccc5c(c4)CNC5)cc(Cl)cc32)C1
The IC50 of the first is 1.8-fold lower: 1.45 µM for the first, 2.55 µM for the second. The first is the more potent here.

Going from `COc1ccc(Cl)cc1[C@H](Nc1ccc2c(c1)CNC2)C(=O)NCC(F)F` to `O=C(NC[C@H]1CCCO1)[C@H](Nc1ccc2c(c1)CNC2)c1cc(Cl)cc2[nH]ncc12`, the IC50 rises from 0.531 µM to 1.16 µM (2.2-fold).

Compared with `NCCc1cccc(NC(=O)c2cc(Cl)cc3[nH]ncc23)c1`, `NCc1cccc(NC(=O)c2cc(Br)cc3[nH]ccc23)c1` is higher in IC50: 94.5 µM for the first, greater than 99.5 µM for the second. The first is the more potent here.

`N=C(N)NCCc1ccccc1B(O)O` and `CCn1c(=O)c(N2CC[C@@H](CO)C2)nc2ccccc21` cannot be ordered by IC50: greater than 100 µM for the first, greater than 99.5 µM for the second.

First: O=C(Nc1ccc2c(c1)CNC2)c1cc(Cl)cc2[nH]c(CCc3cccnc3)nc12
Second: CCc1ccc(-c2nc3c(C(=O)Nc4ccc5c(c4)CNC5)cc(Cl)cc3[nH]2)cc1
The IC50 of the first is 2.7-fold higher: 87.1 µM for the first, 32 µM for the second.

Going from `O=C(Nc1ccc2c(c1)CNC2)c1cc(F)cc2[nH]c(-c3ccc(F)cc3O)nc12` to `O=C(Nc1ccc2c(c1)CNC2)c1cc(F)cc2[nH]c(-c3ccc(F)cc3)nc12`, the IC50 falls from 24.1 µM to 5.37 µM (4.5-fold).

Going from `CCc1cc(Cl)cc(C(=O)Nc2ccc3c(c2)CNC3)c1` to `CC(=O)Nc1cc(Br)cc(C(=O)Nc2ccc3c(c2)CNC3)c1`, the IC50 falls from greater than 99.5 µM to 31.5 µM.

`O=C(Nc1ccc2c(c1)CNC2)c1cc(Cl)cc(C(F)(F)F)n1` and `O=C(Nc1ccc2c(c1)CNC2)c1cc(Cl)ccc1-n1cncn1` are within 1.5-fold of each other in IC50: 40.1 µM for the first, 42.7 µM for the second.

Compared with `CCOc1cccc(-c2ccc(S(=O)(=O)Nc3ccc(Cl)cc3C(=O)O)cc2)c1`, `C[C@@H](Oc1ccc(S(=O)(=O)Nc2ccc(Cl)cc2C(=O)O)cc1)c1ccccc1F` is 1.6-fold higher in IC50: 12.6 µM for the first, 20.1 µM for the second.

`CCNC(=O)Nc1cc(Cl)cc(C(=O)Nc2cc(C)cc(CN)c2)c1` and `CCNC(=O)Nc1cc(Cl)cc(C(=O)Nc2ccc3c(c2)CNCCO3)c1` are within 1.5-fold of each other in IC50: 19.8 µM for the first, 15.5 µM for the second.

`O=C(Nc1ccc2c(c1)CNC2)c1cc(Br)cc2[nH]c(C3CCOCC3)nc12` and `CC(C)(C)c1nc2c(C(=O)Nc3ccc4c(c3)CNC4)cc(Br)cc2[nH]1` cannot be ordered by IC50: greater than 99.5 µM for the first, greater than 99.5 µM for the second.

Compared with `COc1cc(C(=O)Nc2ccc3c(c2)CNC3)cc2ccoc12`, `O=C(Nc1ccc2c(c1)CNC2)c1cc(F)cc(C2=CCOCC2)c1` is 5.2-fold lower in IC50: 48.9 µM for the first, 9.32 µM for the second.

`Clc1cc([C@@H]2C[C@H]2c2cccc(C3CCNCC3)c2)c2cn[nH]c2c1` and `O=C(Nc1ccc2c(c1)CNC2)c1cc(Cl)cc2[nH]c(-c3cc(C4CC4)[nH]n3)nc12` are within 1.5-fold of each other in IC50: 10.9 µM for the first, 10.1 µM for the second.

First: O=C(O)c1cc(Cl)ccc1S(=O)(=O)NC1CCN(c2nc(C3CC3)cc(C(F)(F)F)n2)CC1
Second: O=C(O)c1cc(Oc2ccc(F)cc2)c(F)cc1NS(=O)(=O)c1ccc(Oc2ccccc2Cl)cc1
The IC50 of the first is 14-fold higher: 48.5 µM for the first, 3.39 µM for the second. The second is the more potent here.

Going from `Nc1noc2cccc(C(=O)Nc3ccc4c(c3)CNC4)c12` to `Cc1cccc(-c2nc3c(C(=O)Nc4ccc5c(c4)CNC5)cc(Cl)cc3[nH]2)c1O`, the IC50 falls from 76.8 µM to 17.4 µM (4.4-fold). The second is the more potent here.

Compared with `CCOC(=O)c1ncoc1CNC(=O)[C@H](Nc1ccc2c(c1)CNC2)c1cc(Cl)cc(C2CC2)c1`, `CN(C)c1nc(-c2cc(F)cc(C(=O)Nc3ccc4c(c3)CNC4)c2)cs1` is 4.1-fold higher in IC50: 3.04 µM for the first, 12.6 µM for the second. The first is the more potent here.

With `O=C1Cc2c(cc(F)cc2C(=O)Nc2ccc3c(c2)CNC3)N1` the IC50 was 0.537 µM and 0.576 µM.
